# Patent publication US20240148745A1, “COMPOUNDS FOR USE IN PROGRESSIVE MULTIPLE SCLEROSIS” (FONDAZIONE CENTRO SAN RAFFAELE, priority 2021, published 2024)
# Columns and labels:
# [1] = target: T1, S1R (Sigma 1 Receptor) (Rattus norvegicus, UniProt Q9R0C9); test: CETSA target engagement in CG-4 cell lysates; format: binding; details: 100 μM, 15 minutes, 52-77° C.
# T1 construct: endogenous in cells; host or cells: CG-4 oligodendrocyte cell line (rat), lysate
# Procedure: FIG. 32. […] Samples were heated at increasing temperatures (52-77° C.) and the soluble fractions were subjected to western blot. […] The immunoblot is representative of 4 biological replicates. Band quantification was performed by ImageJ software and the signal intensity of the thermostable protein was normalized to the respective intensity at 52° C. Protein amount at the other temperatures is represented as % of protein at 52° C. Data are means±the standard error of biological quadruplicates measurements and their statistical significance was evaluated by the Student's t-test (*** p<0.001; **p<0.01; *p<0.05).
# [2] = system: LPC-induced demyelinated lesions of the mouse spinal cord; test: LPC model of focal demyelination of the mouse spinal cord; format: in vivo
# [3] = system: primary human A2B5+ pre-oligodendrocytes; test: Ensheathment by primary human A2B5+ oligodendrocyte lineage cells; format: cell-based; details: for percentage of ensheathed O4+ cells: human adult A2B5+ cells, 14 days
# Procedure: FIG. 49. […] The experiments were conducted using primary human oligodendrocyte lineage cells obtained from surgically derived tissue specimens. Specimens were derived either from adults or pediatric age groups. […] Percentages of ensheathed O4+ cells were calculated by the total ensheathed O4+ cells out of total O4+ cells. HA-human adult, HP-human pediatric. *p<0.05.
# [4] = system: mouse cortical and striatal neurons; test: Morphological integrity evaluation, NMDA 20 μM; format: cell-based; details: 1 μM, 24 h pre-treatment, NMDA 20 μM 24 h
# Procedure: Morphological integrity evaluation. Mouse cortical and striatal neurons (14 DIV) cultured in MW96 plates were exposed to 1 uM to 60 uM concentrations of NMDA and relationship between the NMDA dose and fiber length was evaluated. […] Each of the compound was tested in quadruplicate. The fiber length was evaluated by MAP2 staining (please see the method described earlier).
# 42 compounds were screened to evaluate the morphological integrity of cortical and striatal neurons upon chronic (24 h) NMDA exposure at concentration of 20 μM with compounds pre-treatment (24 h) in preventive regimen (FIG. 17).
# [5] = system: iPSC-derived neurons (DIV45); details: human
# Procedure: This protocol was modified from Yuchen Qi et al.^32 First, neural progenitors (NPCs) were generated from hiPSCs by dual-SMAD inhibition. Shortly, at day 0 iPSC colonies (confluent at 70-80%) were washed with PBS Dulbecco's w/o Calcium w/o Magnesium (Euroclone) and hiPSCs' maintenance medium (mTeSR™, StemCell Technologies) was replaced with neural induction medium composed by DMEM/F12 plus N2 medium (1×), B27 without RA supplement (0.5×) (Life Technology), added with SB431542 (10 μM) and LDN (500 nM). This medium was kept until day 4 (“induction”). At day 4, cells were splitted (1:3) with the same induction medium using Accutase®/Accumax™ (StemCell Technologies) dissociated solution. Entire medium was replaced daily up to days 14-16 until rosette formation was observed (“patterning”). At days 14-16, cells were detached by Accutase®/Accumax™ and re-plated on polyornitine/laminin/fibronectin coated MW96 or MW24 plates for terminal differentiation in Neurobasal medium supplemented with B27 (0.5×), BDNF (20 ng/ml), dbcAMP (500 μM), ascorbic acid (200 μM), PD0325901 (1 μM), SU5402 (5 μM), CHIR (3 μM), human recombinant insulin (5 μg/ml), supplemented with RI (Rock inhibitor) (1:3000) to reduce dissociation induced apoptosis. The half of differentiation medium was changed every 3-4 days, supplemented with 1 μg/ml laminin and DAPT (1-2 μM) until terminal maturation of neuronal population (MAP2+ cells). Cultures were characterized by immunocytochemistry and qRT-PCR and neuroprotective experiments were performed on days 30-40 of differentiation.
# Evaluation of cytotoxicity of 160 selected compounds on iPSC-derived neurons (DIV45).
# [6] = system: mouse cortical neurons; test: Morphological integrity evaluation, NMDA 8 μM (MAP2 neurite length and branching); format: cell-based; details: 3 h pre-treatment, NMDA 8 μM 24 h; Z>0.5 criteria
# Outline: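 Mouse cortical neurons (14 DIV) pre-treated 3 h with compounds, then exposed 24 h to 8 μM NMDA; fixed, MAP2 immunostained with DAPI. Total neurite length and non-trunk branch number from 15 images/well, triplicates, converted to plate-based Z-scores; NAC positive, staurosporine and NMDA negative controls.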
# [7] = 30 mg/kg daily oral gavage, 14 dpi
# T1 sequence (Q9R0C9 whole entry): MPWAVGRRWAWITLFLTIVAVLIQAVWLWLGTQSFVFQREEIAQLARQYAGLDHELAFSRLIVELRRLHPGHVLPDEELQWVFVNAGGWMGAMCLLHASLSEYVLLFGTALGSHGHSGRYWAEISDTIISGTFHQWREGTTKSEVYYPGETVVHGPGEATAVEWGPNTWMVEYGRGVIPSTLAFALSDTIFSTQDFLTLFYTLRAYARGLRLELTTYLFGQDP
SMILES,"thermostability of S1R (CETSA, western blot) [1]","density of Olig2+CC1+ differentiated oligodendrocytes in LPC lesions ([2]; 30 mg/kg daily oral gavage, 5 to 14 dpi, readout 14 dpi)","% of remyelinated axons in the lesion [2, 7]","axonal density in LPC lesions [2, 7]","G-ratio ([2]; control vs treated, p<0.0001)",toxicity on dissociated cultures [3],percentage of ensheathed O4+ cells [3],morphological integrity (neurite length) of cortical and striatal neurons [4],viability compared to DMSO [5],preservation of neurite length and network integrity (branching) [6]
O=C(c1ccc(CN2CCOCC2)cc1)N1CCN(C2CC2)CC1 [Bavisant],thermostability of S1R in the presence of Bavisant,significantly increased the density of mature oligodendrocytes,significantly increased the number of remyelinated axons,not changes,enhances remyelination in vivo,No evidence of toxicity,promote ensheathment of adult brain derived A2B5+ cells,,,
CC(=O)N1CCN([C@H]2CCN(C(=O)N(C)[C@H](C)c3cc(C(F)(F)F)cc(C(F)(F)F)c3)[C@@H](c3ccc(F)cc3C)C2)CC1 [Casopitant],,,,,,No evidence of toxicity,promote ensheathment of adult brain derived A2B5+ cells,selected for confirmation,65-80%,
NCCCC[C@H](NC(=O)[C@@H](Cc1cc(Br)c(O)c(Br)c1)NC(=O)N1CCC(N2Cc3ccccc3NC2=O)CC1)C(=O)N1CCN(c2ccncc2)CC1 [Olcegepant],,,,,,,,selected for confirmation,,preserved both neurite length and the network integrity (branching)
O=C(NOC[C@H](O)CO)c1ccc(F)c(F)c1Nc1ccc(I)cc1F [PD-0325901],,,,,,,,,65-80%,
